In DBAASP:
≈ marks a conversion by molar mass, not a printed value. Values belong to the compound of their own block, whether it stands above or below them.

How the values were obtained:
Test in all cases: ≥ marks a high value that may be exact or a test limit, other limits are often not marked, values filed in µg/mL are converted to µM
[1] = test system: Escherichia coli
[2] = test system: Micrococcus luteus A270
[3] = test system: Listeria innocua
[4] = test system: Escherichia coli JW0013
[5] = test system: Pseudomonas syringae pv. tomato DC3000
[6] = test system: Pseudomonas corrugata DSM 7228
[7] = test system: Clavibacter michiganensis subsp. michiganensis DSM 46294
[8] = test system: Pseudomonas syringae pv. syringae DSM 10604
[9] = test system: Xanthomonas vesicatoria DSM 50861
[10] = test system: Pectobacterium carotovorum subsp. carotovorum DSM 30168
[11] = test system: Staphylococcus aureus NCTC 10788
[12] = test system: Escherichia coli NCTC 10418
[13] = test system: Candida albicans NCPF 1467

- MIC [1]: 98 µM (≈ 125 µg/mL)
- MIC [2]: 24 µM (≈ 30.5 µg/mL)
- MIC [3]: 24 µM (≈ 30.5 µg/mL)
SMILES: CC(C)C[C@H](NC(=O)[C@H](CC(C)C)NC(=O)[C@H](CO)NC(=O)[C@H](Cc1cnc[nH]1)NC(=O)[C@H](CO)NC(=O)[C@H](CC(C)C)NC(=O)[C@H](CC(C)C)NC(=O)[C@H](CCCCN)NC(=O)[C@H](Cc1ccccc1)NC(=O)[C@H](CC(N)=O)NC(=O)[C@@H](N)C(C)C)C(=O)O [VNFKLLSHSLL]

- MIC [4]: 1.37 µM (≈ 3.3 µg/mL)
SMILES: CC[C@H](C)[C@H](NC(=O)[C@H](CCCN=C(N)N)NC(=O)[C@H](CCCN=C(N)N)NC(=O)[C@@H]1CCCN1C(=O)[C@@H]1CCCN1C(=O)[C@H](CCCN=C(N)N)NC(=O)[C@@H]1CCCN1C(=O)[C@H](CCCN=C(N)N)NC(=O)[C@@H]1CCCN1C(=O)[C@H](CC(C)C)NC(=O)[C@H](Cc1ccc(O)cc1)NC(=O)[C@H](CC(=O)O)NC(=O)[C@@H]1CCCN1C(=O)[C@H](CCCCN)NC(=O)[C@H](CC(=O)O)NC(=O)[C@@H](N)C(C)C)C(=O)N[C@@H](Cc1ccc(O)cc1)C(=O)N[C@@H](CC(N)=O)C(=O)N[C@@H](CCCN=C(N)N)C(N)=O [VDKPDYLPRPRPPRRIYNR]

- MIC [4]: 1.36 µM (≈ 3.3 µg/mL)
SMILES: CC[C@H](C)[C@H](NC(=O)[C@H](CCCN=C(N)N)NC(=O)[C@H](CCCN=C(N)N)NC(=O)[C@@H]1CCCN1C(=O)[C@@H]1CCCN1C(=O)[C@H](CCCN=C(N)N)NC(=O)[C@@H]1CCCN1C(=O)[C@H](CCCN=C(N)N)NC(=O)[C@@H]1CCCN1C(=O)[C@H](CC(C)C)NC(=O)[C@H](Cc1ccc(O)cc1)NC(=O)[C@H](CCCCN)NC(=O)[C@@H]1CCCN1C(=O)[C@H](CCCCN)NC(=O)[C@H](CC(=O)O)NC(=O)[C@@H](N)C(C)C)C(=O)N[C@@H](Cc1ccc(O)cc1)C(=O)N[C@@H](CC(N)=O)C(=O)N[C@@H](CCCN=C(N)N)C(N)=O [VDKPKYLPRPRPPRRIYNR]

Continued, compound first:

SMILES: CC(C)C[C@H](NC(=O)[C@H](C)NC(=O)[C@H](CC(C)C)NC(=O)[C@H](CCCN=C(N)N)NC(=O)[C@H](CCCN=C(N)N)NC(=O)[C@@H](N)CCCCN)C(=O)N[C@@H](Cc1ccccc1)C(=O)N[C@@H](CCCN=C(N)N)C(=O)N[C@@H](CC(C)C)C(=O)N[C@@H](Cc1ccccc1)C(=O)N[C@@H](CCCN=C(N)N)C(=O)N[C@@H](CC(C)C)C(=O)N[C@@H](C)C(=O)N[C@@H](CC(C)C)C(=O)N[C@@H](CCCCN)C(=O)N[C@@H](CC(C)C)C(=O)N[C@H](C(=O)N[C@@H](CC(C)C)C(=O)N[C@@H](CCCCN)C(=O)N[C@@H](CCCCN)C(N)=O)C(C)C [KRRLALFRLFRLALKLVLKK]
- MIC [5]: 1.01 µM (≈ 2.5 µg/mL)
- MIC [6]: 4.03 µM (≈ 10 µg/mL)
- MIC [7]: 1.01 µM (≈ 2.5 µg/mL)
- MIC [8]: 4.03 µM (≈ 10 µg/mL)
- MIC [9]: 1.01 µM (≈ 2.5 µg/mL)
- MIC [10]: 4.03 µM (≈ 10 µg/mL)

SMILES: CC[C@H](C)[C@H](NC(=O)[C@H](C)NC(=O)[C@H](CO)NC(=O)[C@@H](NC(=O)[C@H](CC(C)C)NC(=O)CNC(=O)[C@H](C)NC(=O)[C@@H](NC(=O)[C@@H](NC(=O)[C@H](CO)NC(=O)[C@@H]1CCCN1C(=O)[C@@H](NC(=O)[C@H](CC(C)C)NC(=O)[C@H](CO)NC(=O)[C@H](Cc1ccccc1)NC(=O)[C@H](CC(C)C)NC(=O)[C@@H](N)Cc1ccccc1)[C@@H](C)CC)C(C)C)[C@@H](C)CC)C(C)C)C(=O)N[C@@H](CCCN=C(N)N)C(=O)N[C@@H](CC(N)=O)C(N)=O [FLFSLIPSVIAGLVSAIRN]
- MIC [11]: 7.93 µM (≈ 16 µg/mL)
- MIC [12]: ≥ 254 µM
- MIC [13]: 15.9 µM (≈ 32 µg/mL)

SMILES: CC[C@H](C)[C@H](NC(=O)CNC(=O)[C@@H](NC(=O)[C@H](C)NC(=O)[C@@H](NC(=O)[C@H](Cc1cnc[nH]1)NC(=O)[C@@H]1CCCN1C(=O)[C@@H](NC(=O)[C@H](CCSC)NC(=O)[C@H](CO)NC(=O)[C@H](Cc1ccccc1)NC(=O)[C@@H](N)Cc1ccccc1)[C@@H](C)CC)[C@@H](C)CC)[C@@H](C)O)C(=O)N[C@@H](C)C(=O)N[C@@H](CO)C(=O)N[C@@H](CC(C)C)C(=O)N[C@H](C(=O)N[C@@H](CCCCN)C(=O)N[C@@H](CC(N)=O)C(=O)N[C@@H](CC(C)C)C(N)=O)C(C)C [FFSMIPHIATGIASLVKNL]
- MIC [11]: 15.5 µM (≈ 32 µg/mL)
- MIC [12]: ≥ 249 µM
- MIC [13]: 31.1 µM (≈ 64 µg/mL)
